Test results: patent US20220175777A1, “Inhibitors of Multidrug Resistance Transporter P-Glycoprotein” (Southern Methodist University, priority 2014, published 2022)

Tests used:
DU145TXR = test: Resensitization of DU145TXR to paclitaxel by 29 variants (MTT cell viability); assay type: cell-based, human; conditions: for Fold vs PTX ÷ 29: compared to parental compound 29
Text: The Group 1 ChemGen/docking routine produced variants of P-gp inhibitor 29 resensitize a multidrug resistant, P-gp overexpressing prostate cancer cell line to paclitaxel. The mitochondrial reduction potential of cells is often used as an indicator for cell viability using MTT assays^40-42. Using these assays it was observed that the five Group 1 derivatives of 29 predicted through the ChemGen/docking routine and synthesized here, 216, 227, 231, 541 and 551, re-sensitized the P-gp overexpressing prostate cancer cell line, DU145TXR^33, to the chemotherapeutic, paclitaxel (FIG. 9, showing results of assays at concentrations of 3 μM, 5 μM, 7 μM, and 10 μM).
Cytotoxicity of the chemotherapeutic, paclitaxel (PTX) to P-gp overexpressing prostate cancer cells, DU145TXR, was determined in the absence and presence of the ChemGen designed 29-variants, 216, 227, 231, 541 and 551. For each experimental compound IC50 values of PTX alone or in the presence of inhibitors, fold improvement of PTX sensitivity in the presence of inhibitor, and fold improvement of PTX sensitivity by variants compared to parental compound 29 are given.

[1] = target: T1, Cysteineless Mouse MDR3 P-glycoprotein (Mus musculus, UniProt P21447, C1070A/C1121A/C1223A/C133A/C427A/C638A/C669A/C713A/C952A); test: ATP hydrolysis by purified P-glycoprotein, basal and verapamil-stimulated; assay type: biochemical; conditions: for Stimulated ATPase (% of DMSO): in the presence of verapamil; for Stimulated ATPase (% of DMSO) / Basal ATPase (% of DMSO): ± standard deviation; for Basal ATPase (% of DMSO) / Effect on basal ATPase: without added transport substrate
T1 construct: made in house; host or cells: Pichia pastoris
T1 sequence (P21447 whole entry C133A/C427A/C638A/C669A/C713A/C952A/C1070A/C1121A/C1223A): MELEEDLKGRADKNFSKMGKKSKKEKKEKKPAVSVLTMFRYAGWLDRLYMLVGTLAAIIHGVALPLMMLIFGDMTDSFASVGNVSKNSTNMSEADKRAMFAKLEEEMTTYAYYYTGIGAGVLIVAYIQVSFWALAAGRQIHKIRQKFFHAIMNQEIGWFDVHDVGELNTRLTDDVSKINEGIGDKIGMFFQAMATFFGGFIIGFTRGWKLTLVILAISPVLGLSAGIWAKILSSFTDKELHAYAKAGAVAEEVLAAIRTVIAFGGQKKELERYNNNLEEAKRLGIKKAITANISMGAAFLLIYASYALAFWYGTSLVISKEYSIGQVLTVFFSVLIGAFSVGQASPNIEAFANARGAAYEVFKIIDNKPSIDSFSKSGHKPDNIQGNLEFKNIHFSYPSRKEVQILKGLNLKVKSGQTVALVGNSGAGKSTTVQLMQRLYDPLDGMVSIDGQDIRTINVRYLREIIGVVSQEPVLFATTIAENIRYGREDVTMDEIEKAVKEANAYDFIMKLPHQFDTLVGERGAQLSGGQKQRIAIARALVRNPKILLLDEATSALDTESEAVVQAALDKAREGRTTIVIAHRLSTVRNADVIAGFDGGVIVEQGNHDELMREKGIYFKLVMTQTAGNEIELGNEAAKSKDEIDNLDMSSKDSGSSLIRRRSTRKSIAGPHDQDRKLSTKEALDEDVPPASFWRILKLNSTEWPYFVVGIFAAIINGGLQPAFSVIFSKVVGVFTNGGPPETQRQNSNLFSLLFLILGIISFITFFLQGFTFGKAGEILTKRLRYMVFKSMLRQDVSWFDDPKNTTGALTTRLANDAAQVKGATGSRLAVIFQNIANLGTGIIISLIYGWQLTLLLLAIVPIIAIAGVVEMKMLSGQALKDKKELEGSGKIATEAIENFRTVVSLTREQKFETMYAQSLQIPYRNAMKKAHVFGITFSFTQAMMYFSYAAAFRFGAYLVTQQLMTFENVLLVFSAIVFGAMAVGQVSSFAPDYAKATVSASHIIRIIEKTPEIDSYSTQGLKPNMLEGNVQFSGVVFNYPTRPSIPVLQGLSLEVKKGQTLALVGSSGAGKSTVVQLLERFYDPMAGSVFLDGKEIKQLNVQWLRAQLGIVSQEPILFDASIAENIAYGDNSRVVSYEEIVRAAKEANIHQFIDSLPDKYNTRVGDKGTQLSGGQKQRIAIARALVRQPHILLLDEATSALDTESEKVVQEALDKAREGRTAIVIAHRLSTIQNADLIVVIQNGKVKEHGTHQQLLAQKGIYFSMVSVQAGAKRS
Text: The efficacy of molecules identified using in silico methods to function as potential inhibitors of P-glycoprotein was initially tested with regard to their capability to inhibit ATP hydrolysis by purified P-glycoprotein. For this purpose, a well-established activity assay for ATP hydrolyzing enzymes that uses the oxidation of NADH to NAD+ through coupling the reactions of pyruvate kinase and lactate dehydrogenase to the hydrolysis of ATP was adapted to medium throughput conditions on 96 well plates. […] In this set-up, the effects of potential small molecule inhibitors on the ATP hydrolysis activity of P-glycoprotein were tested in duplicate or triplicate and were repeated at least two times using different enzyme preparations.
The P-glycoprotein used in these assays was a close relative of the human P-glycoprotein that is found in mice. A mutant version of the mouse P-glycoprotein where all intrinsic cysteine amino acids had been replaced by alanine residues was recombinantly expressed in the yeast Pichia pastoris and used for these initial tests. […] Prior to testing the ATP-hydrolysis activity, P-glycoprotein was incubated with phosphatidyl choline for stabilization of the enzyme during the assay.
Different concentrations of the to-be-tested small molecules were added and pre-incubated at 37° C. The ATP hydrolysis reaction was then started by adding equal volume of double concentrated ATPase cocktail. The final ATP concentration in the reaction was 2 mM. The reaction was allowed to proceed for 20 minutes, the rate of ATP hydrolysis was calculated using the molar extinction coefficient of NADH, and the one-to-one relationship of ATP hydrolyzed and NADH oxidized.
Evaluation of mode of inhibition of P-glycoprotein by Group 1 and Group 2 variants of compound 29. To assess the mode of inhibition of P-gp by the novel variants of P-gp inhibitor 29, ATP hydrolysis by P-gp was evaluated in the presence or absence of the variants. […] Murine P-gp (MDR3) expressed in Pichia pastoris that had all naturally occurring cysteines replaced with alanine, was used^45, 46. It is widely assumed that the ATP hydrolytic rate of P-gp is stimulated in the presence of transport substrates when compared to ATP hydrolysis in the absence of transport substrates. Assays comparing these rates can therefore be useful not only in identifying inhibitors of P-gp catalyzed ATP hydrolysis, but also to potentially infer whether a compound might be a transport substrate if basal ATPase rates are stimulated by the addition of a compound.

[2] = target: T1, Cysteineless Mouse MDR3 P-glycoprotein; test: SL-ATP binding to P-gp by ESR spectroscopy; conditions: SL-ATP titration in presence of compound
Text: Determination of the possible mode of ATP hydrolysis inhibition by the identified P-glycoprotein inhibitors. The mode of hydrolysis of ATP by P-glycoprotein was investigated by measuring the maximal binding stoichiometry and binding affinity of an analog of ATP, SL-ATP, and by Electron Spin Resonance (ESR) spectroscopy, similar to in both the presence and absence of the identified inhibitors.
The high-field signal of the freely mobile, unbound SL-ATP is compared and is used to calculate the amount of ATP-analog bound to P-glycoprotein. Binding of SL-ATP in the absence of any P-glycoprotein inhibitor saturated at about 2 mol of SL-nucleotide bounds per mol of P-glycoprotein.
FIGS. 2A-2D are plots showing the effects of P-glycoprotein ATP hydrolysis inhibitors on nucleotide binding. Between 30 and 50 microM Pgp were incubated with 50 microM inhibitor compound. Increasing amounts of SL-ATP were added. The ESR signal of the free SL-ATP in the presence of P-glycoprotein and inhibitor was compared to that in the absence of P-glycoprotein. The graphs represent at least 3 individual studies each using 3 to 5 different P-glycoprotein preparations.

[3] = target: Normal Human MDR1 P-glycoprotein (Homo sapiens, UniProt P08183); test: ATP hydrolysis by human P-gp assembled into membrane nanodiscs; assay type: biochemical; conditions: human MDR1 P-gp in nanodiscs
Sequence of Normal Human MDR1 P-glycoprotein (P08183 whole entry): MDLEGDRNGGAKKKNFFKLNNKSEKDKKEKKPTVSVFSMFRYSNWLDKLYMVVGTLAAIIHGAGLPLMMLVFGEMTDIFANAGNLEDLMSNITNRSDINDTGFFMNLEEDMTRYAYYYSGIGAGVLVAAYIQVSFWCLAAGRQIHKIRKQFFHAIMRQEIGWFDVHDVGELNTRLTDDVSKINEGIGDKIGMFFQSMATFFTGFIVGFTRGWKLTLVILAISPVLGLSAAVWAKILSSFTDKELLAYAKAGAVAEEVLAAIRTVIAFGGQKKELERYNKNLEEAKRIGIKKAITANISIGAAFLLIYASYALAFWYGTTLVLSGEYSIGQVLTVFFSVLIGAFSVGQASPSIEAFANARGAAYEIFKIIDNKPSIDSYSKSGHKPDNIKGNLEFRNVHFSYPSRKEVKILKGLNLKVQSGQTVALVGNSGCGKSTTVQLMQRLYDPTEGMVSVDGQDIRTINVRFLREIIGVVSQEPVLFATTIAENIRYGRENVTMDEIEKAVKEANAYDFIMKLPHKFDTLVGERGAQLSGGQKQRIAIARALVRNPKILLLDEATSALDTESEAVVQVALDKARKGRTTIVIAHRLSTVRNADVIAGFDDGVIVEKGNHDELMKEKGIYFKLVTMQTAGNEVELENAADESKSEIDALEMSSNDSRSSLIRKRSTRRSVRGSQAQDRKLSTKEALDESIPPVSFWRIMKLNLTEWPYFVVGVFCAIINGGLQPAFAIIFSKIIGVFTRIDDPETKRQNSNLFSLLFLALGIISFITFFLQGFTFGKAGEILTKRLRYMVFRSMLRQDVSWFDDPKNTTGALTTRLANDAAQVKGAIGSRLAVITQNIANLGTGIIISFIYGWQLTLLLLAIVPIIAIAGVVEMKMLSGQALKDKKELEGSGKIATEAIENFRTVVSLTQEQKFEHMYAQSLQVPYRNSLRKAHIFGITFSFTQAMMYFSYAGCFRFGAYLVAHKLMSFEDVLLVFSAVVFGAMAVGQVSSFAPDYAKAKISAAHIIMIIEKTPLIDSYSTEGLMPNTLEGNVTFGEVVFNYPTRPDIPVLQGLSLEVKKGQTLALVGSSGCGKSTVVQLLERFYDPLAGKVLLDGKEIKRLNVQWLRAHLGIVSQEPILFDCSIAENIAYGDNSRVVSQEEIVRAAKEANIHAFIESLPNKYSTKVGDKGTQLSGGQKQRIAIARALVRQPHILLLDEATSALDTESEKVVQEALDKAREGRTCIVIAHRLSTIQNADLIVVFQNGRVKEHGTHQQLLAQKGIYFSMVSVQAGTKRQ
Text: To assess whether the observed discrepancies of compounds stimulating basal P-gp ATPase activity but not being transport substrates of the human pump in the cell culture assessments were due to the fact that these biochemical assays used a cysteineless variant of the mouse MDR3 P-glycoprotein, the experiments were repeated using normal human MDR1 P-gp. In order to stabilize the human protein for the activity assays, the protein was assembled into membrane nanodiscs as described herein.

P-gp = P-gp (Homo sapiens, UniProt P08183); conditions: for Transport substrate for P-gp: not told
Sequence of P-gp (P08183 whole entry): as above
Experimental: Stimulation of basal ATPase by 29-variants was used as an indicator that a compound may be a P-gp transport substrate. Effects on stimulated P-gp ATPase activity indicated whether a compound directly interfered with ATP usage by the protein (***, p<0.001; **, p<0.01; *, p<0.1; NS, not significant). Quantitative cellular accumulation of 29-variants was performed using LC-MS/MS and is presented as a ratio of the cellular amounts of 29-variants in the presence of P-gp inhibitor, tariquidar, divided by amounts accumulated in its absence. […] Binding of an ATP analog, SL-ATP, to P-gp was used to determine whether ATP binding to P-gp was affected by the 29-variants. Values+/−standard deviations are shown for at least three different P-gp preparations and three independent SL-ATP titration experiments. The values for SL-ATP binding in the presence of 29 were taken directly from Brewer et al. (2014).
Intracellular accumulation of compound 29 variants. Cell accumulation assays for each of the 29 variants were performed as in reference^28 to more directly assess whether the compounds were indeed transport substrates for P-gp.

[4] = 3 μM inhibitor, fold improvement of PTX sensitivity vs PTX alone

SMILES | Stimulated ATPase (% of DMSO) [1] | Basal ATPase (% of DMSO) [1] | Maximum ATP binding mol SL-ANP bound/mol P-gp [2] [mol SL-ANP bound/mol P-gp] | Basal ATPase (% of DMSO) [3] | Stimulated ATPase (% of DMSO) [3] | Transport substrate for P-gp (P-gp) | Fold vs PTX ÷ 29 (DU145TXR; 3 μM inhibitor, listed as 227) [Fold] | Fold vs PTX (DU145TXR; [4]) [Fold] | Fold vs PTX ÷ 29 (DU145TXR; 5 μM inhibitor) [Fold] | Fold vs PTX (DU145TXR; 5 μM inhibitor, vs PTX alone) [Fold] | Fold vs PTX ÷ 29 (DU145TXR; 7 μM inhibitor) [Fold] | Fold vs PTX (DU145TXR; 7 μM inhibitor, vs PTX alone) [Fold] | Fold vs PTX ÷ 29 (DU145TXR; 10 μM inhibitor) [Fold] | Fold vs PTX (DU145TXR; 10 μM inhibitor, vs PTX alone) [Fold] | Intracellular accumulation in the presence versus absence of TQR (P-gp) | Effect on basal ATPase ([1]; listed as 280) | Effect on basal ATPase ([1]; listed as 286) | Fold vs PTX ÷ 29 (DU145TXR; 3 μM inhibitor, listed as 231) [Fold]
Cc1cc(C)c(-c2cc(NC(=O)CSCC(=O)NC(c3ccccc3)c3ccccc3)n(-c3ccccc3)n2)cc1C [SMU29-280] | 116 ± 4 % of DMSO | 148 ± 4 % of DMSO | 1.6 ± 0.1 | 76 ± 8 % of DMSO | 54 ± 7 % of DMSO |  |  |  |  |  |  |  |  |  | did not show significantly different intracellular accumulations | stimulated basal ATPase only marginally or with no statistical significance |  | 
Cc1cc(C)c(-c2cc(NC(=O)CSCC(=O)NC34CC5CC(CC(C5)C3)C4)n(-c3ccccc3)n2)cc1C [SMU29-278] | 41 ± 7 % of DMSO | 78 ± 4 % of DMSO | 1.3 ± 0.1 | 74 ± 6 % of DMSO | 63 ± 6 % of DMSO | very unlikely to be a transport substrate |  |  |  |  |  |  |  |  | did not show significantly different intracellular accumulations |  |  | 
Cc1cc(C)c(-c2cc(NC(=O)CSCC(=O)Nc3ccc4ncsc4c3)n(-c3ccccc3)n2)cc1C [SMU29-255] | 123 ± 15 % of DMSO | 355 ± 7 % of DMSO | 1.9 ± 0.1 | 84 ± 9 % of DMSO | 59 ± 6 % of DMSO | very likely to be transport substrates |  |  |  |  |  |  |  |  | more modest, but statistically significant increases |  |  | 
Cc1cc(C)c(-c2cc(NC(=O)CSCC(=O)NCc3ccc(F)cc3)n(-c3ccccc3)n2)cc1C [SMU29-286] | 98 ± 2 % of DMSO | 143 ± 32 % of DMSO | 1.9 ± 0.1 | 95 ± 3 % of DMSO | 59 ± 4 % of DMSO | very likely to be transport substrates |  |  |  |  |  |  |  |  | more modest, but statistically significant increases |  | stimulated basal ATPase only marginally or with no statistical significance | 
COc1cccc2c1C(=O)c1c(O)c3c(c(O)c1C2=O)C[C@@](O)(C(C)=O)C[C@@H]3O[C@H]1C[C@H](N)[C@H](O)[C@H](C)O1 [DNR, Daunorubicin, reference compound] |  |  |  |  |  |  |  |  |  |  |  |  |  |  | very strong cellular accumulation |  |  | 
Cc1cc(C)c(-c2cc(NC(=O)CSCC(=O)Nc3ccc4ccccc4c3)n(-c3ccccc3)n2)cc1C [SMU29-231] | 141 ± 18 % of DMSO | 70 ± 0 % of DMSO | 1.6 ± 0.1 | 70 ± 4 % of DMSO | 40 ± 3 % of DMSO |  |  | 14 | 4.2 | 46 | 3.4 | 303 | 11 | 1060 |  |  |  | 4.1

More lines, main results first:

Stimulated ATPase (% of DMSO) [1] | Basal ATPase (% of DMSO) [1] | Maximum ATP binding mol SL-ANP bound/mol P-gp [2] [mol SL-ANP bound/mol P-gp] | Basal ATPase (% of DMSO) [3] | Stimulated ATPase (% of DMSO) [3] | Transport substrate for P-gp (P-gp) | SMILES | Fold vs PTX ÷ 29 (DU145TXR; 3 μM inhibitor, listed as 227) [Fold] | Fold vs PTX (DU145TXR; [4]) [Fold] | Fold vs PTX ÷ 29 (DU145TXR; 5 μM inhibitor) [Fold] | Fold vs PTX (DU145TXR; 5 μM inhibitor, vs PTX alone) [Fold] | Fold vs PTX ÷ 29 (DU145TXR; 7 μM inhibitor) [Fold] | Fold vs PTX (DU145TXR; 7 μM inhibitor, vs PTX alone) [Fold] | Fold vs PTX ÷ 29 (DU145TXR; 10 μM inhibitor) [Fold] | Fold vs PTX (DU145TXR; 10 μM inhibitor, vs PTX alone) [Fold] | Intracellular accumulation in the presence versus absence of TQR (P-gp) | Effect on basal ATPase ([1]; listed as 280) | Effect on basal ATPase ([1]; listed as 286) | Fold vs PTX ÷ 29 (DU145TXR; 3 μM inhibitor, listed as 231) [Fold]
50 ± 2 % of DMSO | 88 ± 4 % of DMSO | 1.8 ± 0.1 | 83 ± 7 % of DMSO | 62 ± 5 % of DMSO |  | Cc1cc(C)c(-c2cc(NC(=O)CSCC(=O)N3c4ccccc4CCc4ccccc43)n(-c3ccccc3)n2)cc1C [SMU29-227] | 3.8 | 13 | 3.7 | 41 | 10 | 353 | 5 | 530 |  |  |  | 
194 ± 22 % of DMSO | 1143 ± 46 % of DMSO | 1.2 ± 0.1 | 89 ± 7 % of DMSO | 61 ± 7 % of DMSO | very likely to be transport substrates | COc1cc(NC(=O)CSCC(=O)Nc2cc(-c3cc(C)c(C)cc3C)nn2-c2ccccc2)cc(OC)c1OC [SMU29-238] |  |  |  |  |  |  |  |  | very large and significant increase |  |  | 
